Several values for one entry are separate records, joined by “and”; a condition that tells them apart may be missing. Equal values may be shown once.
Test system: 324938-238-R-J1-PDC complex spheroids viability
Assay: Anticancer human tumor 324938-238-R-J1-PDC patient-derived bladder carcinoma cell line growth inhibition [CLK]
Conditions: for viability, T/C: stronger effect = lower value
Source text: A high-throughput screen of multi-cell type tumor spheroids was designed to identify active combinations of […] and targeted small molecules. Complex spheroids include a stromal component modeled by human endothelial cells (HUVEC) and fibroblasts modeled by human mesenchymal stem cells (MSCs). The concentration ranges selected for each drug and investigational agent were based upon clinically achievable concentrations if the clinical Cmax of the agent was known.
Compounds. The drugs and investigational agents: cirtuvivint (SM08502; NSC835563), CC-671 (NSC850746), vemurafenib (NSC761431), tapotoclax (NSC804041), sotorasib (NSC818433), adagrasib (NSC831453), MRTX-1133 (NSC836407), BAY2416964 (NSC825713), copanlisib (NSC816437), inavolisib (NSC800729), abemaciclib (NSC768073), osimertinib (NSC779217), entinostat (NSC756642), eltanexor (KPT-8602, NSC794443), venetoclax (NSC766270), ceralasertib (NSC777638), bortezomib (NSC756655), olaparib (NSC753686), talazoparib (NSC767125), alisertib (NSC759677), peposertib (NSC802822), gemcitabine (NSC613327), 5-fluorouracil (NSC19893), SN-38 (NSC673596), oxaliplatin (NSC266046), paclitaxel (NSC125973), and doxorubicin (NSC123127), were obtained from the National Cancer Institute (NCI) Developmental Therapeutics Program Chemical Repository. The FDA-approved anticancer drug set is available from the Developmental Therapeutics Program at https://dtp.cancer.gov/organization/dscb/obtaining/available plates.htm. […] The stock solutions were prepared in dimethyl sulfoxide (DMSO, Sigma-Aldrich, St. Louis, MO, cat. D2650), except for the platinum complexes which were prepared in saline (Quality Biological, Gaithersburg, MD, cat. 114-055-101), at 800-fold the tested concentration and stored at -70 degrees C prior to their use. All drugs and investigational agents were tested over a range starting from a high concentration at or near the clinical Cmax and decreasing in half-log increments. If the clinical Cmax for an agent had not been determined, the highest concentration tested was 10 microM.
Cell Culture. All cells were maintained in an incubator at 37 degrees C and 5% CO2 with 95% humidity. The PDC lines were cultured according to standard operating procedures established by the NCI PDMR. Briefly, all PDCs were thawed and cultured in Matrigel-coated flasks prepared with a working solution of 1X Ham's F-12 nutrient mix, without supplementation (Invitrogen, Waltham, MA, cat. 11765054), 100 U/mL penicillin-streptomycin (Invitrogen, cat. 15140122), and 2.5% Matrigel (Corning Inc., Corning, NY, cat. 354248) for the first three passages. The 947758-054-R-J2-PDC line was cultured in 6B/Colon 1A media, which includes advanced DMEM/F-12 (Thermo Fisher Scientific, cat. 12634028), 10 mM HEPES (Thermo Fisher Scientific, cat. 15630080), 1X GlutaMAX supplement (Thermo Fisher Scientific, cat. 35050061), 0.1 mg/mL primocin (InvivoGen, cat. ant-pm-2), 10% defined fetal bovine serum, heat inactivated (HyClone Laboratories Inc., cat. SH30070.03HI), 1.25 mM N-Acetyl-L-cysteine (Sigma-Aldrich, cat. A9165), 10 mM nicotinamide (Sigma-Aldrich, cat. N0636), 1X B-27 supplement (Thermo Fisher Scientific, cat. 17504044), 1X N-2 supplement (Thermo Fisher Scientific, cat. 17502048), and 10 microM Y-27632 dihydrochloride (Tocris Bioscience, cat. 1254). The 876862-298-R-J1-PDC was cultured in 6E media, which includes all 6B/Colon 1A media components plus 50% L-WRN conditioned media (ATCC, cat. CRL-3276), 50 ng/mL recombinant human EGF recombinant protein (hEGF; Thermo Fisher Scientific, cat. PHG0311), 10 ng/mL recombinant human fibroblast growth factor 10 (hGFG-10; PeproTech, cat. 100-26), 1 ng/mL recombinant human fibroblast growth factor 2 (hFGF-2; PeproTech, cat. 100-18B), and 1 µM prostaglandin E2 (PGE2; Tocris, cat. 2296). The 227483-062-R1-J1-PDC line was cultured in Panc media, containing all 6E components except hFGF-2, with the addition of 500 nM SB-431542 (Selleckchem, cat. S1067) and 10 nM gastrin (Tocris, cat. 3006). […]

[1] = curve of first compound, second compound 0.0316 µM
[2] = curve of first compound, second compound 0.1 µM
[3] = curve of first compound, second compound 0.316 µM
[4] = curve of first compound, second compound 1 µM
[5] = curve of first compound, second compound 3.16 µM
[6] = curve of first compound, second compound 10 µM
[7] = second compound 0.0316 µM, first compound 0.0316 µM
[8] = second compound 0.0316 µM, first compound 0.1 µM
[9] = second compound 0.1 µM, first compound 0.0316 µM
[10] = second compound 0.1 µM, first compound 0.1 µM
[11] = second compound 0.316 µM, first compound 0.0316 µM
[12] = second compound 0.316 µM, first compound 0.1 µM
[13] = second compound 1 µM, first compound 0.0316 µM
[14] = second compound 1 µM, first compound 0.1 µM
[15] = second compound 3.16 µM, first compound 0.0316 µM
[16] = second compound 3.16 µM, first compound 0.1 µM
[17] = second compound 10 µM, first compound 0.0316 µM
[18] = second compound 10 µM, first compound 0.1 µM
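Note: viability read after seven days of drug exposure.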
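Throughout, for viability, T/C: 100% = DMSO vehicle control wells.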

Cn1ncnc1[C@H]1c2n[nH]c(=O)c3cc(F)cc(c23)N[C@@H]1c1ccc(F)cc1 + CNC(=O)c1ccc(Nc2nc(OC3CCCC3)c3c(-c4ccc5nc(C)oc5c4)c[nH]c3n2)c(OC)c1
IC50 [1]: 11.9 nM | IC50 [2]: < 0.316 nM | IC50 [3]: < 0.316 nM | IC50 [4]: < 0.316 nM | IC50 [5]: < 0.316 nM | IC50 [6]: < 0.316 nM | viability, T/C (second compound 0.0316 µM, first compound 0.000316 µM): 83% | viability, T/C (second compound 0.0316 µM, first compound 0.001 µM): 89.5% | viability, T/C (second compound 0.0316 µM, first compound 0.00316 µM): 66.3% | viability, T/C (second compound 0.0316 µM, first compound 0.01 µM): 54.8% | viability, T/C [7]: 35.1% | viability, T/C [8]: 26.6% | viability, T/C (second compound 0.1 µM, first compound 0.000316 µM): 26.2% | viability, T/C (second compound 0.1 µM, first compound 0.001 µM): 26.5% | viability, T/C (second compound 0.1 µM, first compound 0.00316 µM): 21.8% | viability, T/C (second compound 0.1 µM, first compound 0.01 µM): 21% | viability, T/C [9]: 20.4% | viability, T/C [10]: 20.7% | viability, T/C (second compound 0.316 µM, first compound 0.000316 µM): 17.8% | viability, T/C (second compound 0.316 µM, first compound 0.001 µM): 20.8% | viability, T/C (second compound 0.316 µM, first compound 0.00316 µM): 16.7% | viability, T/C (second compound 0.316 µM, first compound 0.01 µM): 18.7% | viability, T/C [11]: 19.8% | viability, T/C [12]: 17.4% | viability, T/C (second compound 1 µM, first compound 0.000316 µM): 16.5% | viability, T/C (second compound 1 µM, first compound 0.001 µM): 15.4% | viability, T/C (second compound 1 µM, first compound 0.00316 µM): 14.7% | viability, T/C (second compound 1 µM, first compound 0.01 µM): 13.9% | viability, T/C [13]: 14.8% | viability, T/C [14]: 15.9% | viability, T/C (second compound 3.16 µM, first compound 0.000316 µM): 17.5% | viability, T/C (second compound 3.16 µM, first compound 0.001 µM): 19.6% | viability, T/C (second compound 3.16 µM, first compound 0.00316 µM): 15.4% | viability, T/C (second compound 3.16 µM, first compound 0.01 µM): 17% | viability, T/C [15]: 18% | viability, T/C [16]: 15.4% | viability, T/C (second compound 10 µM, first compound 0.000316 µM): 18.2% | viability, T/C (second compound 10 µM, first compound 0.001 µM): 18.8% | viability, T/C (second compound 10 µM, first compound 0.00316 µM): 18.9% | viability, T/C (second compound 10 µM, first compound 0.01 µM): 17.8% | viability, T/C [17]: 18.7% | viability, T/C [18]: 17.3%

Nc1ccccc1NC(=O)c1ccc(CNC(=O)OCc2cccnc2)cc1 + CNC(=O)c1ccc(Nc2nc(OC3CCCC3)c3c(-c4ccc5nc(C)oc5c4)c[nH]c3n2)c(OC)c1
IC50 [1]: 1470 nM | IC50 [2]: < 31.6 nM | IC50 [3]: < 31.6 nM | IC50 [4]: < 31.6 nM | IC50 [5]: < 31.6 nM | IC50 [6]: < 31.6 nM | viability, T/C [7]: 78.2% | viability, T/C [8]: 91.8% | viability, T/C (second compound 0.0316 µM, first compound 0.316 µM): 69% | viability, T/C (second compound 0.0316 µM, first compound 1 µM): 57.2% | viability, T/C (second compound 0.0316 µM, first compound 3.16 µM): 35% | viability, T/C (second compound 0.0316 µM, first compound 10 µM): 5.41% | viability, T/C [9]: 31.1% | viability, T/C [10]: 32.7% | viability, T/C (second compound 0.1 µM, first compound 0.316 µM): 30.4% | viability, T/C (second compound 0.1 µM, first compound 1 µM): 34% | viability, T/C (second compound 0.1 µM, first compound 3.16 µM): 32.6% | viability, T/C (second compound 0.1 µM, first compound 10 µM): 4.92% | viability, T/C [11]: 15.1% | viability, T/C [12]: 17% | viability, T/C (second compound 0.316 µM, first compound 0.316 µM): 15.8% | viability, T/C (second compound 0.316 µM, first compound 1 µM): 23.2% | viability, T/C (second compound 0.316 µM, first compound 3.16 µM): 26.1% | viability, T/C (second compound 0.316 µM, first compound 10 µM): 3.89% | viability, T/C [13]: 14.2% | viability, T/C [14]: 14.6% | viability, T/C (second compound 1 µM, first compound 0.316 µM): 16.7% | viability, T/C (second compound 1 µM, first compound 1 µM): 23.7% | viability, T/C (second compound 1 µM, first compound 3.16 µM): 26.2% | viability, T/C (second compound 1 µM, first compound 10 µM): 2.44% | viability, T/C [15]: 13% | viability, T/C [16]: 15.2% | viability, T/C (second compound 3.16 µM, first compound 0.316 µM): 18.6% | viability, T/C (second compound 3.16 µM, first compound 1 µM): 18.9% | viability, T/C (second compound 3.16 µM, first compound 3.16 µM): 26.2% | viability, T/C (second compound 3.16 µM, first compound 10 µM): 2.46% | viability, T/C [17]: 15.2% | viability, T/C [18]: 17.1% | viability, T/C (second compound 10 µM, first compound 0.316 µM): 19% | viability, T/C (second compound 10 µM, first compound 1 µM): 20.7% | viability, T/C (second compound 10 µM, first compound 3.16 µM): 25.8% | viability, T/C (second compound 10 µM, first compound 10 µM): 2.14%

Nc1ccccc1NC(=O)c1ccc(CNC(=O)OCc2cccnc2)cc1
viability, T/C (compound 0.0316 µM): 90% and 75.9% | viability, T/C (compound 0.1 µM): 89.8% and 91.8% | viability, T/C (compound 0.316 µM): 83.1% and 73.8% | viability, T/C (compound 1 µM): 58% and 50.5% | viability, T/C (compound 3.16 µM): 29.4% and 33.5% | viability, T/C (compound 10 µM): 9.64% and 5.66% | IC50 (curve of compound): 1420 nM and 1290 nM

O=C(c1cc(Cc2n[nH]c(=O)c3ccccc23)ccc1F)N1CCN(C(=O)C2CC2)CC1
viability, T/C (compound 0.0316 µM): 73.8% and 84.1% | viability, T/C (compound 0.1 µM): 75.1% and 88.4% | viability, T/C (compound 0.316 µM): 71.4% and 72.4% | viability, T/C (compound 1 µM): 83.3% and 73.8% | viability, T/C (compound 3.16 µM): 57% and 60.5% | viability, T/C (compound 10 µM): 31.8% and 31.7% | IC50 (curve of compound): 4350 nM and 4650 nM
